Laboratory results taken from PMC9977316, “The kidney drug transporter OAT1 regulates gut microbiome–dependent host metabolism” (JCI Insight, 2023).
Entries after “also recorded” stand apart in the source; their conditions may differ. Where a name gives a salt, the structure may show the parent alone.

How the values were obtained:
[1] = target: T1, OAT1 (Mus musculus, UniProt Q8VC69); experiment: Serum metabolomics, effect of genotype (Oat1-KO versus WT), 2-way ANOVA; format: in vivo; conditions: for effect of genotype on serum level: statistical analysis of the serum metabolome; for interaction between genotype and treatment on serum level: 2-way ANOVA, loss of Oat1 x microbiome depletion
T1 construct: from tissue; host or cells: living mice (kidney proximal tubule); Oat1-KO versus WT
T1 sequence (Q8VC69 1-545): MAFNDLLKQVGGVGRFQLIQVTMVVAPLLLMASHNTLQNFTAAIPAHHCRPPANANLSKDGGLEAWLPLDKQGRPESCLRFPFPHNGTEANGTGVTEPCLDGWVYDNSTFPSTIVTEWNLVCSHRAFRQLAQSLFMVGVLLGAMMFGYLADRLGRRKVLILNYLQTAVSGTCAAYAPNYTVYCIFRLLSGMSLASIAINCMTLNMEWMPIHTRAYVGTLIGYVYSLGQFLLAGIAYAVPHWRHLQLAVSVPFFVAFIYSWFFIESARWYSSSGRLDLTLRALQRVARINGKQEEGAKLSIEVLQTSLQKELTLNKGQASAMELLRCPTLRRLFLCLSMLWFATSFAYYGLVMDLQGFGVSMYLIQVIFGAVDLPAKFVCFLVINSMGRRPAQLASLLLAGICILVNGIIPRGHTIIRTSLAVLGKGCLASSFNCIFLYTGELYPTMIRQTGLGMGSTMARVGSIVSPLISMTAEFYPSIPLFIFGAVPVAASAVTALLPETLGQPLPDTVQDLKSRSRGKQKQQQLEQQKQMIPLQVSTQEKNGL
Experimental: Adult male KO and WT mice were housed in a 12-hour light-dark cycle and allowed ad libitum access to food and water. Oat1-KO mice were generated and maintained as previously described ([49]). Feces were collected from mice weekly in sterile 2 mL centrifuge tubes, flash frozen, and stored at –80°C. Animals were sacrificed by CO2 inhalation, and blood samples were extracted from mice by cardiac puncture. Serum was extracted, and samples were flash frozen and stored at –80°C until further analysis.
Serum samples were shipped on dry ice to Metabolon Inc. for preparation and metabolomics. Per Metabolon Inc., proteins were removed from the serum and 5 fractions were generated for different mass spectrometry methods. […] Peaks were identified and associated with defined compounds based on retention time, mass/charge ratio, and MS/MS spectral data. Quantification of peaks was performed using AUC.
Scaled intensity for each metabolite was normalized to volume, and missing values were imputed with the lowest value for the compound. For all fold-change calculations, scaled intensities were averaged and compared with each other. Statistical comparisons were performed using the Python module, statsmodels (https://www.statsmodels.org/stable/index.html) and were made between groups by 2-way ANOVA following log transformation and FDR correction, with P < 0.05 being considered significant. Enrichment for each superpathway and subpathway was calculated using the number of total metabolites measured and the number of metabolites in each respective superpathway and subpathway, as previously described ([16]).

[2] = tested on: OAT1; conditions: cited from earlier work; for Elevated in plasma of probenecid-treated humans / Decreased in urine of probenecid-treated humans: before vs 5 hours after oral probenecid
[3] = target: T2, OAT1 (Homo sapiens, UniProt Q4U2R8); experiment: In vitro OAT1 transport assay (inhibition of 6-carboxyfluorescein uptake); format: cell-based; set-up: host or cells: HEK (HEK293) cells stably overexpressing human OAT1; conditions: for In vitro cell–based transport assay: this work
T2 sequence (Q4U2R8 1-563): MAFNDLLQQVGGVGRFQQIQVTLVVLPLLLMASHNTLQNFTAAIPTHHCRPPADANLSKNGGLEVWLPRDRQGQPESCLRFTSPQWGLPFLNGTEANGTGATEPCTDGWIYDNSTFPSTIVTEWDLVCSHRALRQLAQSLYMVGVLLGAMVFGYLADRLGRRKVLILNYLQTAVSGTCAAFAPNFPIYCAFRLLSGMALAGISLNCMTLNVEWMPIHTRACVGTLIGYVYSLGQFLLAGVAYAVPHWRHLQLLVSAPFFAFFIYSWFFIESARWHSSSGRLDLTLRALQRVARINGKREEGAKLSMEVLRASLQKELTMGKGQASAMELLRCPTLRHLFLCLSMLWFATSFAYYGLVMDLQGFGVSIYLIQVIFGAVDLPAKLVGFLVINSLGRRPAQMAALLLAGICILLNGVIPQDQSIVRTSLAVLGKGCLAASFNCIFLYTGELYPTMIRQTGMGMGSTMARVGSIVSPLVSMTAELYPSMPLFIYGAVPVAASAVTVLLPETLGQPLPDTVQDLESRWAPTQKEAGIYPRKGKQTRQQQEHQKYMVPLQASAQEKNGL
Experimental: Human embryonic kidney (HEK) cells stably overexpressing human OAT1 (SOLVO Biotechnology) were used for in vitro inhibition assays. […] Prior to functional assays, cells were plated in 96-well plates and grown for 24 hours or until confluent in media without blasticidin. Metabolites were added at either 1 mM or 2 mM, and serial dilution was performed down all columns. A fixed concentration of 10 μM 6-carboxyfluorescein (6-CF) was introduced to each well for 10 minutes. Cells were rinsed 3 times in ice-cold PBS, and the fluorescence was measured using a fluorescence plate reader. IC50 values were calculated using GraphPad Prism 9. Controls were carried out using probenecid, an established inhibitor of OAT1 function.

[4] = direction of serum change by loss of Oat1 and by microbiome depletion

Status [1, 4]	Compound	Decreased in urine of probenecid-treated humans [2]	also measured
Group 2	O=C(O)CNC(=O)Cc1ccccc1 [phenylacetylglycine]		Elevated in plasma of probenecid-treated humans [2]: ✓
Group 1	CS(=O)(=O)CC[C@H](N)C(=O)O [methionine sulfone]	✓	
Group 2	O=C1Cc2ccccc2N1 [indolin-2-one]	✓	Elevated in plasma of probenecid-treated humans [2]: ✓
Group 1	O=C(O)CCC(=O)NCCS(=O)(=O)O [succinoyltaurine]	✓	
Group 2	Cc1ccc(OS(=O)(=O)O)cc1 [p-cresol sulfate]	✓	Elevated in plasma of probenecid-treated humans [2]: ✓; plasma level in probenecid treated humans [2]: significantly elevated in the plasma
Group 3	CC(=O)N[C@@H](CCCCNC(N)=O)C(=O)O [N-acetylhomocitrulline]	✓	
Group 2	C[C@H](CCC(=O)O)[C@H]1CC[C@H]2[C@@H]3CC[C@@H]4C[C@H](O)CC[C@]4(C)[C@H]3C[C@H](O)[C@]12C [deoxycholate]		IC50 [3]: 19.2 µM; In vitro cell–based transport assay [3]: × (this work); interaction between genotype and treatment on serum level [1]: impacted by the interaction between the variables; also recorded: affected by genotype-treatment interaction
Group 4	CN1CCC[C@H]1C(=O)O [N-methylproline]		
Group 4	CC(=O)N[C@@H](CO)C(=O)O [N-acetylserine]		
Group 1	C[C@@H](C(=O)O)N(C)C [N,N-dimethylalanine]		
Group 2	C[N+](C)(C)CCCCC(=O)[O-] [N,N,N-trimethyl-5-aminovalerate]		
Group 3	CC(=O)NCCCC[C@H](NC(C)=O)C(=O)O [N2,N6-diacetyllysine]	✓	
Group 3	CC(=O)N[C@@H](CCCCN(C)C)C(=O)O [N2-acetyl,N6,N6-dimethyllysine]	✓	
Group 1	O=C1O[C@H]([C@@H](O)CO)C(OS(=O)(=O)O)=C1O [ascorbic acid 3-sulfate*]		
Group 3	[H]/N=C(/N)NCC(=O)O [guanidinoacetate]		

Second part, the compound before the results:

Compound	Status [1, 4]	Decreased in urine of probenecid-treated humans [2]	also measured
OC[C@H]1OC[C@H](O)[C@@H](O)[C@@H]1O [1,5-anhydroglucitol (1,5-AG)]	Group 1		
O=C(O)Cc1c[nH]c2ccc(O)cc12 [5-Hydroxyindoleacetate]			effect of genotype on serum level [1]: not impacted by either variable
COc1cc(CC(=O)O)ccc1OS(=O)(=O)O [homovanillate sulfate]	Group 2	✓	
O=C(O)/C=C/c1ccc(O)cc1 [4-hydroxycinnamate]			IC50 [3]: 13.3 µM; In vitro cell–based transport assay [3]: × (this work); effect of genotype on serum level [1]: not impacted by either variable
C=CCc1ccc(OS(=O)(=O)O)cc1 [4-allylphenol sulfate]	Group 2	✓	
Cc1ccc(OS(=O)(=O)O)c(N)c1 [2-amino-p-cresol sulfate]	Group 2		interaction between genotype and treatment on serum level [1]: impacted by the interaction between the variables
O=C(O)CCc1ccc(O)cc1 [3-(4-hydroxyphenyl)propionate]	Group 2		
COc1ccc(OS(=O)(=O)O)cc1 [4-methoxyphenol sulfate]	Group 2	✓	Elevated in plasma of probenecid-treated humans [2]: ✓; plasma level in probenecid treated humans [2]: elevated in the plasma; urine level in probenecid treated humans [2]: decreased in the urine
Cn1cncc1C[C@H](N)C(=O)O [3-methylhistidine]	Group 2		
O=S(=O)(O)Oc1ccccc1O [catechol sulfate]	Group 2	✓	
O=S(=O)(O)Oc1c[nH]c2ccccc12 [3-indoxyl sulfate]		✓	Elevated in plasma of probenecid-treated humans [2]: ✓; plasma level in probenecid treated humans [2]: significantly elevated in the plasma
CC(CCC[C@@H](C)[C@H]1CC[C@H]2[C@@H]3[C@H](O)CC4=CC(=O)CC[C@]4(C)[C@H]3CC[C@]12C)C(=O)O (some centres unmarked) [7-HOCA]	Group 3		
O=C(O)c1c(O)cccc1O [2,6-dihydroxybenzoic acid]	Group 2	✓	Elevated in plasma of probenecid-treated humans [2]: ✓
O=C(O)CCc1ccccc1.O=C(O)CCc1ccccc1 [3-phenylpropionate (hydrocinnamate)]	Group 4		
O=S(=O)(O)Oc1ccc(O)cc1 [hydroquinone sulfate]	Group 2		Elevated in plasma of probenecid-treated humans [2]: ✓
O=C(O)Cc1ccccc1O [2-hydroxyphenylacetate]			IC50 [3]: 39.2 µM; In vitro cell–based transport assay [3]: × (this work); effect of genotype on serum level [1]: affected by genotype
CC(C)C(O)(CC(=O)O)C(=O)O (centres unmarked) [2-isopropylmalate]	Group 4		Elevated in plasma of probenecid-treated humans [2]: ✓
CCc1ccc(OS(=O)(=O)O)cc1 [4-ethylphenyl sulfate]	Group 2	✓	urine level in probenecid treated humans [2]: significantly decreased in the urine
Cn1cncc1CC(O)C(=O)O (centres unmarked) [1-methyl-5-imidazolelactate]	Group 1		
O=C(O)CCCC(=O)C(=O)O [2-oxoadipate]	Group 4	✓	
O=C(O)/C=C/c1ccccc1 [cinnamate]			Status ([1]; mouse, in vivo): Group 4
O=C(O)Cc1cccc2cc[nH]c12 [1H-indole-7-acetic acid]	Group 2		
docosahexaenoylcarnitine (C22:6)*			interaction between genotype and treatment on serum level [1]: impacted by the interaction between the variables
O=C(O)CCc1c[nH]c2ccccc12 [indolepropionate]			IC50 [3]: 39.2 µM; In vitro cell–based transport assay [3]: × (this work)
3-methoxycatechol sulfate (2)	Group 2	✓	
